Assay results taken from article doi:10.1101/2021.04.08.439011v1 (biorxiv, 2021).
Read-outs that look alike come from different tables or passages of the source.

Key:
ERN1 = ERN1 (Homo sapiens, UniProt O75460); details: 1 µM; binder
ACVR1B = ACVR1B (Homo sapiens, UniProt P36896); details: 1 µM; binder
AURKC = AURKC (Homo sapiens, UniProt Q9UQB9); details: 1 µM; binder
PIK3CA(I800L) = PIK3CA(I800L) (Homo sapiens, UniProt P42336, I800L); details: 1 µM; binder
ROCK2 = ROCK2 (Homo sapiens, UniProt O75116); details: 1 µM; binder
CSNK1E = CSNK1E (Homo sapiens, UniProt P49674); details: 1 µM; binder
LRRK2 = LRRK2 (Homo sapiens, UniProt Q5S007); details: 1 µM; binder
DCAMKL1 = DCAMKL1 (Homo sapiens, UniProt O15075); details: 1 µM; binder
LYN = LYN (Homo sapiens, UniProt P07948); details: 1 µM; binder
LYN, sequence (P07948 whole entry): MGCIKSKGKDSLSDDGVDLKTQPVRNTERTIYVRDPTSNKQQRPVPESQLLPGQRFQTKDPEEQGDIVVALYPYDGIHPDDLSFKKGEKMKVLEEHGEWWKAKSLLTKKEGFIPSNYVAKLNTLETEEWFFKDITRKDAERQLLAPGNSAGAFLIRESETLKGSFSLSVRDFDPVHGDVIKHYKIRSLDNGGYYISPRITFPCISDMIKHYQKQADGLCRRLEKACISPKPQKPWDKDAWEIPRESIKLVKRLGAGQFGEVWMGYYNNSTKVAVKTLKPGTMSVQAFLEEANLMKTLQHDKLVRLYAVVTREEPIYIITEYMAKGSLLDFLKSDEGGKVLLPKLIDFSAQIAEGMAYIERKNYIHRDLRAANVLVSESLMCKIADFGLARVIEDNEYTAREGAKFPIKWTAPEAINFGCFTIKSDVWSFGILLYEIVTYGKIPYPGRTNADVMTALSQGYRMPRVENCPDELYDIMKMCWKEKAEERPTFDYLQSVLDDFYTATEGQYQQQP

RPS6KA1 = RPS6KA1 (Homo sapiens, UniProt Q15418); details: binder
RPS6KA1, sequence (Q15418 whole entry): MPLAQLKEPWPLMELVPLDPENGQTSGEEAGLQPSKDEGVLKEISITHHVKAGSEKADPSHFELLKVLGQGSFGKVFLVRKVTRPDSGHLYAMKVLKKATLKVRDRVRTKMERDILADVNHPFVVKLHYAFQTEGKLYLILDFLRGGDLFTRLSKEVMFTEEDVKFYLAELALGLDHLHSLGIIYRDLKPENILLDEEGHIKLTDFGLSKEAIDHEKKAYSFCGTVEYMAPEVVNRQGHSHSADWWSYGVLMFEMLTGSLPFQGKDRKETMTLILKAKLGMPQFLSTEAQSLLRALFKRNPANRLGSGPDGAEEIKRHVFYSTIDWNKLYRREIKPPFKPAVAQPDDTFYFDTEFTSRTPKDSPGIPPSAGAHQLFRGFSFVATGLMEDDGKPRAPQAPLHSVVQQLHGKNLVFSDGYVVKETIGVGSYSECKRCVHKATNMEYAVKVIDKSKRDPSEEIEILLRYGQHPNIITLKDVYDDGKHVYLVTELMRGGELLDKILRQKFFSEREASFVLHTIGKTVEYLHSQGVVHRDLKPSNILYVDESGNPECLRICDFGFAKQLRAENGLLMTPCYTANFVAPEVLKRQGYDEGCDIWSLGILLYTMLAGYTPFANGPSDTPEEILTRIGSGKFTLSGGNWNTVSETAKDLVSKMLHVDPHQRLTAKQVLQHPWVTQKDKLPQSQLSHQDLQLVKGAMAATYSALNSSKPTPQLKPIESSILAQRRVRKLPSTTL

VPS34 = VPS34 (Homo sapiens, UniProt Q8NEB9); details: 1 µM; binder
YSK4 = YSK4 (Homo sapiens, UniProt Q56UN5); details: 1 µM; binder
YSK4, sequence (Q56UN5 whole entry): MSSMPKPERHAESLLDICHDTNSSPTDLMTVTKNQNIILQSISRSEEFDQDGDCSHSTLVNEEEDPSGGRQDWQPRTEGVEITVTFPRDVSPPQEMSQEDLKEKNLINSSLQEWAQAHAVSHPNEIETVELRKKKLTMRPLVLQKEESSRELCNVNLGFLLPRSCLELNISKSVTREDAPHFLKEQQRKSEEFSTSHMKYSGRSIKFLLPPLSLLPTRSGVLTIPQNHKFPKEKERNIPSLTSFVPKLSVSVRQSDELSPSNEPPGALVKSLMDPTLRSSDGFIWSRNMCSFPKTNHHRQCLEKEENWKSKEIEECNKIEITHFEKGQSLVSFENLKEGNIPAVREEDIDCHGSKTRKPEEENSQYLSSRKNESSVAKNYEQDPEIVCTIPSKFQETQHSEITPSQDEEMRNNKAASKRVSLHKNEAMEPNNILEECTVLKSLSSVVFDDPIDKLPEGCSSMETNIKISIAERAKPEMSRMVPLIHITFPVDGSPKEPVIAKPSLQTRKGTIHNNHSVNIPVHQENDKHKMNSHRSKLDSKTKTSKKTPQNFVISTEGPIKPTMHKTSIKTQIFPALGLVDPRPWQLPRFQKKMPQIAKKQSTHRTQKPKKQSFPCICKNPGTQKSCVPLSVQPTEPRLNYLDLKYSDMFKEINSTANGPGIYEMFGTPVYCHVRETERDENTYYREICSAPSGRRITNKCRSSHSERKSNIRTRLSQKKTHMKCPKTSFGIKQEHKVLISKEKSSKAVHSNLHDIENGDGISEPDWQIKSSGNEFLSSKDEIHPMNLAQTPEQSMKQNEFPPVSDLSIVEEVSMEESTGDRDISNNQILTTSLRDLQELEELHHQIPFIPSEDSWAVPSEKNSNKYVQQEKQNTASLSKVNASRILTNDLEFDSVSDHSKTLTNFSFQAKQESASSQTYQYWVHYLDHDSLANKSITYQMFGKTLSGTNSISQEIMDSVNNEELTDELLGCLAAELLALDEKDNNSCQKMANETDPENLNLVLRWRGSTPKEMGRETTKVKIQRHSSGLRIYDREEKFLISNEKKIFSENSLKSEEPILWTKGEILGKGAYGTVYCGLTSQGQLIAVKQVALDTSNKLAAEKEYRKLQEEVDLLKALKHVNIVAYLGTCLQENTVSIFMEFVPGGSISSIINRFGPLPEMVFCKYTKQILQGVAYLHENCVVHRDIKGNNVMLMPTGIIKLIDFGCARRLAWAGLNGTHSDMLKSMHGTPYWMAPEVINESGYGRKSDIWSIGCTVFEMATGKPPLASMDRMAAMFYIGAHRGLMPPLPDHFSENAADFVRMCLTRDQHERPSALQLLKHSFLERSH

LCK = LCK (Homo sapiens, UniProt P06239); details: 1 µM; binder
ACVR2B = ACVR2B (Homo sapiens, UniProt Q13705); details: 1 µM; binder
ACVR2B, sequence (Q13705 whole entry): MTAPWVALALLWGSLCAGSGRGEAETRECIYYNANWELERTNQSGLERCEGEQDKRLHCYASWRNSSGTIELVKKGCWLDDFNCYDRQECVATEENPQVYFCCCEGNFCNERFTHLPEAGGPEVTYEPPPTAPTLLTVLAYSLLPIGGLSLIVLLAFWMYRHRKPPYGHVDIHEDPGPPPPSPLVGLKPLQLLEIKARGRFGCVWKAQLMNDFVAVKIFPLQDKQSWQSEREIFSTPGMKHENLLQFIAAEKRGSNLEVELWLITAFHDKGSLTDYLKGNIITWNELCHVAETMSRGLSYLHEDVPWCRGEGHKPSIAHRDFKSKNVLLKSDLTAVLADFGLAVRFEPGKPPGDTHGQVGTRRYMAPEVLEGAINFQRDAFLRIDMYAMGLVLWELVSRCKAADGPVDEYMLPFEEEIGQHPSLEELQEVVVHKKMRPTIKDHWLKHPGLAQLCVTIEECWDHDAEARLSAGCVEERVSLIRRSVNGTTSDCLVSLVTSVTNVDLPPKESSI

MYLK3 = MYLK3 (Homo sapiens, UniProt Q32MK0); details: 1 µM; binder
MYLK3, sequence (Q32MK0 whole entry): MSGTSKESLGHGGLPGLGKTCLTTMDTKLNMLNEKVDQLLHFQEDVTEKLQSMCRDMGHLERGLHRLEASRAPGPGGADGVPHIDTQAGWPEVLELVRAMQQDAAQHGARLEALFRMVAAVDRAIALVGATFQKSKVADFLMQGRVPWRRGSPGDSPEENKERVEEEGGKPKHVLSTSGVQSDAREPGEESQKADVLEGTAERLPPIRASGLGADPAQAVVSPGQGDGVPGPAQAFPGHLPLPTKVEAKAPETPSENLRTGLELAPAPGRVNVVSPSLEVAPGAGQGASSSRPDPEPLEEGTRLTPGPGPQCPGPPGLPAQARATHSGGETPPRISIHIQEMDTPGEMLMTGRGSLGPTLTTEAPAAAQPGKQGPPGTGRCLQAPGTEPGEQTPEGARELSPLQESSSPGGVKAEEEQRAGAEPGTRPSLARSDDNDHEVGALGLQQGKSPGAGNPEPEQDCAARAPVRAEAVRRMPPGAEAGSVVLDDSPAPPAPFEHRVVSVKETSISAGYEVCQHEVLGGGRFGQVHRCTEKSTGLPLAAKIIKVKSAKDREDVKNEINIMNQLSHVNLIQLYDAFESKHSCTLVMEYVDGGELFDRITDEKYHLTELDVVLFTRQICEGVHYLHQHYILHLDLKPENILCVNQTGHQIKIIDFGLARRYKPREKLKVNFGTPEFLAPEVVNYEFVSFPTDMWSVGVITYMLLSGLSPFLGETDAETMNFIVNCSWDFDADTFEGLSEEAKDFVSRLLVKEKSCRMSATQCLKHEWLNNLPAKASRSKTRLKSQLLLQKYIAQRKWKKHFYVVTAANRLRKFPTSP

DMPK = DMPK (Homo sapiens, UniProt Q09013); details: 1 µM; binder
RIPK1 = RIPK1 (Homo sapiens, UniProt Q13546); details: 1 µM; binder
PHKG1 = PHKG1 (Homo sapiens, UniProt Q16816); details: 1 µM; binder
PCTK1 = PCTK1 (Homo sapiens, UniProt Q00536); details: 1 µM; binder
EGFR(G719S) = EGFR(G719S) (Homo sapiens, UniProt P00533, G719S); details: 1 µM; binder
TTK = TTK (Homo sapiens, UniProt P33981); details: 1 µM; binder
SGK = SGK (Homo sapiens, UniProt O00141); details: 1 µM; binder
EPHB2 = EPHB2 (Homo sapiens, UniProt P29323); details: 1 µM; binder
ABL1(F317L) = ABL1(F317L) (Homo sapiens, UniProt P00519, F317L); details: 1 µM, binder
ABL1(F317L), sequence (P00519 whole entry F317L): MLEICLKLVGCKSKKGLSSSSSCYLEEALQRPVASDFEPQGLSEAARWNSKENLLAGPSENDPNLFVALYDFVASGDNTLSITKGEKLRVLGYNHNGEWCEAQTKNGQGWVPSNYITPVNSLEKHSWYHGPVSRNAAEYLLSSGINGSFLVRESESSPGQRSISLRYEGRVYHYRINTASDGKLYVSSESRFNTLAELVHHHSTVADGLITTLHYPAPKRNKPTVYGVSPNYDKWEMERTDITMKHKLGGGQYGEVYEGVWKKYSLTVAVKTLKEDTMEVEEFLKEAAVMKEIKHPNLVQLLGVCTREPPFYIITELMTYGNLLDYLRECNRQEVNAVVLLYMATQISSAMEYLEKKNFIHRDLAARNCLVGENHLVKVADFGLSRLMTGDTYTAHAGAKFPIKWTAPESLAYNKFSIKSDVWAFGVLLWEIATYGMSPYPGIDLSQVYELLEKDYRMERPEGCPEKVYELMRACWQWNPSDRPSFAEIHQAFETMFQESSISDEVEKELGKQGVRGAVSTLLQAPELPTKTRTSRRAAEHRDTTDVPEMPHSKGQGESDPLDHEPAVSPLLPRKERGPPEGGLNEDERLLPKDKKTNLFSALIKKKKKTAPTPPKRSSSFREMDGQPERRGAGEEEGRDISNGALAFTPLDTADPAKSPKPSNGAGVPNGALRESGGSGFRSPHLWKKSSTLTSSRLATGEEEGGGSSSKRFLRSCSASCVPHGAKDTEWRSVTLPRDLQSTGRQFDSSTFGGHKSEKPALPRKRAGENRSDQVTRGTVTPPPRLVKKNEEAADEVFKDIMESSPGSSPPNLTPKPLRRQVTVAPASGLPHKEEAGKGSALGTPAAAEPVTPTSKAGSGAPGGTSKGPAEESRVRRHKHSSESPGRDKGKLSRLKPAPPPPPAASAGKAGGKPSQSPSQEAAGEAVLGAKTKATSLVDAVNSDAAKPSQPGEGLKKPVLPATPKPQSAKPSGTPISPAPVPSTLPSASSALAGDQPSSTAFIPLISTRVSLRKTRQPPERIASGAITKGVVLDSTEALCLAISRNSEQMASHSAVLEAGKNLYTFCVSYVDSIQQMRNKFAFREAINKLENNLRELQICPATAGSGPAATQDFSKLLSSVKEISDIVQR

TYRO3 = TYRO3 (Homo sapiens, UniProt Q06418); details: 1 µM; binder
ASK1 = ASK1 (Homo sapiens, UniProt Q99683); details: 1 µM; binder
ERBB3 = ERBB3 (Homo sapiens, UniProt P21860); details: 1 µM; binder
PRKCD = PRKCD (Homo sapiens, UniProt Q05655); details: 1 µM; binder
YANK1 = YANK1 (Homo sapiens, UniProt Q8WU08); details: 1 µM; binder
p38-alpha = p38-alpha (Homo sapiens, UniProt Q16539); details: 1 µM; binder

Q: For CNc1ncc2cc(-c3ccc(-c4cccc(C)n4)cc3Cl)c(=O)n(C[C@H]3OC[C@H](N)CO3)c2n1 [compound 6, G-5555], which “Percent Control” value (ERN1) is on record?
A: 100%

Q: And the “Percent Control” value (ACVR1B)?
A: 96%

Q: What about the “Percent Control” value (AURKC) of the same compound?
A: 20%

Q: What about the “Percent Control” value (PIK3CA(I800L)) of the same compound?
A: 100%

Q: And the “Percent Control” value (ROCK2)?
A: 90%

Q: And the “Percent Control” value (CSNK1E)?
A: 52%

Q: And the “Percent Control” value (LRRK2)?
A: 100%

Q: What about the “Percent Control” value (DCAMKL1) of the same compound?
A: 79%

Q: And the “Percent Control” value (LYN)?
A: 74%

Q: What about the “Percent Control” value (RPS6KA1; Kin.Dom.1 N-terminal) of the same compound?
A: 69%

Q: What about the “Percent Control” value (RPS6KA1; Kin.Dom.2 C-terminal, 1 µM) of the same compound?
A: 81%

Q: And the “Percent Control” value (VPS34)?
A: 100%

Q: What about the “Percent Control” value (YSK4) of the same compound?
A: 19%

Q: What about the “Percent Control” value (LCK) of the same compound?
A: 11%

Q: What about the “Percent Control” value (ACVR2B) of the same compound?
A: 100%

Q: And the “Percent Control” value (MYLK3)?
A: 100%

Q: What about the “Percent Control” value (DMPK) of the same compound?
A: 100%

Q: What about the “Percent Control” value (RIPK1) of the same compound?
A: 100%

Q: What about the “Percent Control” value (PHKG1) of the same compound?
A: 100%

Q: And the “Percent Control” value (PCTK1)?
A: 100%

Q: What about the “Percent Control” value (EGFR(G719S)) of the same compound?
A: 100%

Q: And the “Percent Control” value (TTK)?
A: 97%

Q: And the “Percent Control” value (SGK)?
A: 100%

Q: And the “Percent Control” value (EPHB2)?
A: 79%

Q: And the “Percent Control” value (ABL1(F317L); nonphosphorylated)?
A: 87%

Q: And the “Percent Control” value (ABL1(F317L); phosphorylated)?
A: 100%

Q: What about the “Percent Control” value (TYRO3) of the same compound?
A: 92%

Q: What about the “Percent Control” value (ASK1) of the same compound?
A: 71%

Q: And the “Percent Control” value (ERBB3)?
A: 86%

Q: What about the “Percent Control” value (PRKCD) of the same compound?
A: 100%

Q: And the “Percent Control” value (YANK1)?
A: 3.7%

Q: And the “Percent Control” value (p38-alpha)?
A: 100%
